Assay [1] concerns the target T1, Polyphenol oxidase 2 (Agaricus bisporus, UniProt O42713).
T1 sequence (O42713 whole entry): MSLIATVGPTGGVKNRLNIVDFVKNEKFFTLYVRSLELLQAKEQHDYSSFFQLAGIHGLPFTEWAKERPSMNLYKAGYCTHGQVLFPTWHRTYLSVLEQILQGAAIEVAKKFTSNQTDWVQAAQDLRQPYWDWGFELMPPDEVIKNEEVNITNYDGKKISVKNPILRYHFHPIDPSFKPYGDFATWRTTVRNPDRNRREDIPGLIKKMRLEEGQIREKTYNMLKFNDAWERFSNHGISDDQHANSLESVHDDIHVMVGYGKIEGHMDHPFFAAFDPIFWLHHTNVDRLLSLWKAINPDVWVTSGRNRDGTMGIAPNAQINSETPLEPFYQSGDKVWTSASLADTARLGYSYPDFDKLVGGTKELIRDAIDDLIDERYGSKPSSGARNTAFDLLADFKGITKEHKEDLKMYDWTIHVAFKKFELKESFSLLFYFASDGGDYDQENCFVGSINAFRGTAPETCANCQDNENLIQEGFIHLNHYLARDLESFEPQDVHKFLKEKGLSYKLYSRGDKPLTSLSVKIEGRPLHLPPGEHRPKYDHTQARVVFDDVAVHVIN
The experiment in a line: Catecholase Activity Assay. To be noted: pH 6.8; 20 °C. Here is the method: (§1) Kinetic assay of catecholase and cresolase activities was carried out through depletion of MeBACat and MePAPh for 1 or 2 min with enzyme concentrations of 11.11 and 112.68 ug/mL at wavelenghts of 473 nm and 352 nm using a Cary spectrophotometer, 100 Biomodel with jacketed cell holders.

Assay [2] concerns the target T1, Polyphenol oxidase 2. In words: Cresolase Activity Assay. To be noted: pH 6.8; 20 °C. Here is the method:
as §1

One may read the Ki as a dissociation constant, usually derived from enzyme kinetics or from competition with a known ligand. Read a low Ki as tighter binding. With `CC(C)COC(=S)[S][Na]` [Iso-butyl xanthate, II], the Ki in assay [1] came out at 21.8 µM; in assay [2] it was 7.2 µM.

Turning to `CC(C)CCOC(=S)[S][Na]` [Iso-pentyl xanthate, III], the figures for the Ki in assay [1] and in assay [2] were 42.2 µM and 6.1 µM, respectively.

As for `CC(C)OC(=S)[S][Na]` [Iso-propyl xanthate, I], the inhibition constant Ki in assay [1] was 12.9 µM; in assay [2] it was 9.8 µM.
